# In patent publication US9029385B2, “Compositions and methods for treating fibroproliferative disorders” (priority 2007, dated 2015):
# Assays:
# Type in all cases: in vivo
# [1] = test system: bleomycin-induced pulmonary fibrosis; test: Bleomycin-induced pulmonary fibrosis mouse model: wet lung weight; conditions: mice, BLM 0.06 U IT; IP daily for 14 days (PTX 10 mg/kg, NAC 20 mg/kg); vs BLM + saline; FIG. 3
# Experimental: The composition including pentoxifylline (PTX) and N-acetyl-cysteine (NAC) was assessed in vivo in a mouse model using an experimental design in which a pulmonary fibrosis was generated using bleomycin injury of lung. Bleomycin (BLM) is an effective antineoplastic drug that binds to and damages DNA of tumour cells. However, administration of BLM may result in lung inflammation that can progress to fibrosis. This side effect is due mostly to augmented concentration of reactive oxygen species, decrease in nicotinamide adenine dinucleotide (NAD) and adenosine triphosphate (ATP), and overproduction of mature collagen fibrils. Because BLM-induced lung fibrosis is easily reproduced in different species of mammals, experimental models using the drug have been adopted with the goal of investigating the efficacy of the current invention. […] In this example, the effects of PTX and NAC in combination were studied in comparison to PTX and NAC individually. […] In addition, the lung weights were recorded, photographs of the lungs were taken and tissue samples processed either for biochemical analysis of hydroxyproline (immediately frozen on dry ice) or further morphological analysis (immersed in fixative solution of 10% neutral-buffered formalin).
# [2] = test system: bleomycin-induced pulmonary fibrosis; test: Bleomycin-induced pulmonary fibrosis mouse model: lung histopathology and semi-quantitative lesion score (Masson trichrome); conditions: mice, fourteen days after intratracheal bleomycin; PTX 10 mg/kg and/or NAC 20 mg/kg IP daily; vs untreated BLM animals
# Source text: FIG. 4 illustrates representative photomicrographs of lung histopathology. Normal lung histology is shown in panel A (Group I-saline). […] Collagen is stained with Masson trichrome (light blue color). Original ×10 and ×40 magnifications are shown. FIG. 5 illustrates the effect of pentoxifylline and N-acetyl-cysteine on histological lesions scores of the extent and severity of fibrosis in the experimental groups, as indicated. Data are representative of 5 independent experiments, presented as mean±SD (n=4). The composition including pentoxifylline (PTX) and N-acetyl-cysteine (NAC) was assessed in vivo in a mouse model using an experimental design in which a pulmonary fibrosis was generated using bleomycin injury of lung. Bleomycin (BLM) is an effective antineoplastic drug that binds to and damages DNA of tumour cells. However, administration of BLM may result in lung inflammation that can progress to fibrosis. […] In addition, the lung weights were recorded, photographs of the lungs were taken and tissue samples processed either for biochemical analysis of hydroxyproline (immediately frozen on dry ice) or further morphological analysis (immersed in fixative solution of 10% neutral-buffered formalin).
# TNF-α = test: Bleomycin-induced pulmonary fibrosis mouse model: TNF-α in bronchoalveolar lavage fluid by ELISA; conditions: mice, day 5 post bleomycin instillation, PTX 10 mg/kg, NAC 20 mg/kg IP daily, FIG. 7
# Experimental: Difference of TNF-α at day 5 post bleomycin instillation is shown. Values are means±SD; 5 mice per group. The composition including pentoxifylline (PTX) and N-acetyl-cysteine (NAC) was assessed in vivo in a mouse model using an experimental design in which a pulmonary fibrosis was generated using bleomycin injury of lung. Bleomycin (BLM) is an effective antineoplastic drug that binds to and damages DNA of tumour cells. However, administration of BLM may result in lung inflammation that can progress to fibrosis. This side effect is due mostly to augmented concentration of reactive oxygen species, decrease in nicotinamide adenine dinucleotide (NAD) and adenosine triphosphate (ATP), and overproduction of mature collagen fibrils. Because BLM-induced lung fibrosis is easily reproduced in different species of mammals, experimental models using the drug have been adopted with the goal of investigating the efficacy of the current invention. [table] Mice (under anesthesia) received a single intratracheal dose of either saline (control) or bleomycin (BLM). […] In addition, the lung weights were recorded, photographs of the lungs were taken and tissue samples processed either for biochemical analysis of hydroxyproline (immediately frozen on dry ice) or further morphological analysis (immersed in fixative solution of 10% neutral-buffered formalin). […]
# glutathione (GSH) = test: Bleomycin-induced pulmonary fibrosis mouse model: total glutathione in bronchoalveolar lavage fluid; conditions: mice, BLM IT; NAC 20 mg/kg IP daily; FIG. 8
# Experimental: FIG. 8 illustrates total glutathione levels in bronchoalveolar lavage fluid (BALF) in different experimental groups, as indicated. Data are representative of 4 independent experiments, and presented as mean±SD (n=5). The composition including pentoxifylline (PTX) and N-acetyl-cysteine (NAC) was assessed in vivo in a mouse model using an experimental design in which a pulmonary fibrosis was generated using bleomycin injury of lung. Bleomycin (BLM) is an effective antineoplastic drug that binds to and damages DNA of tumour cells. However, administration of BLM may result in lung inflammation that can progress to fibrosis. This side effect is due mostly to augmented concentration of reactive oxygen species, decrease in nicotinamide adenine dinucleotide (NAD) and adenosine triphosphate (ATP), and overproduction of mature collagen fibrils. Because BLM-induced lung fibrosis is easily reproduced in different species of mammals, experimental models using the drug have been adopted with the goal of investigating the efficacy of the current invention. [table] […] In addition, the lung weights were recorded, photographs of the lungs were taken and tissue samples processed either for biochemical analysis of hydroxyproline (immediately frozen on dry ice) or further morphological analysis (immersed in fixative solution of 10% neutral-buffered formalin). […]
SMILES,lung weight [1],anti-fibrotic effect seen in lung histology [2],BLM-induced increase in TNF-α level in BALF (TNF-α),total glutathione (GSH) level in BALF (glutathione (GSH))
"CC(=O)N[C@@H](CS)C(=O)O [NAC, N-acetyl-L-cysteine]",lower lung weights were observed but statistical significance was not reached,marked anti-fibrotic effect,significantly decreased,GSH levels can indeed be supplemented
"CC(=O)CCCCn1c(=O)c2c(ncn2C)n(C)c1=O [PTX, pentoxifylline]",lower lung weights were observed but statistical significance was not reached,,significantly decreased,
